Experiments:
stress-induced ulcer = experiment: mice experiments on stress-induced ulcer (restraint plus water immersion); format: in vivo, male ddY mice; conditions: for ulcer index: 200 mg/kg p.o.
Method: (a) Mice Experiments on stress-induced ulcer Experimental procedures:
Male ddY mice weighing about 20 g were made to fast for 18 hours. Water was given freely. Compounds to be tested were suspended in Tween 80 to prepare an aqueous suspension and administered orally. Immediately thereafter, the mice were subjected to restraint plus water immersion stress (25° C.) for 6 hours. Thereafter, the stomach was excised and fixed by formalin. The degree of ulcer was shown as a total of the length. The control group was given only the solvent.

aspirin-induced ulcer = experiment: rat experiment on aspirin-induced ulcer, oral (experiment b); format: in vivo, male Wister rats
Method: (b) Experimental procedures:
Male Wister rats weighing 120-140 g were made to fast for 24 hours, and compounds to be tested were administered orally. After 5 hours, the rats were killed by a blow. The stomach was excised and observed for the presence of ulcer.
The size of ulcer was measured by ulcer index (ulcer length×width mm^2).

[1] = tested on: ulcers induced by acetic acid; experiment: experiments with rats on ulcers induced by acetic acid (chronic gastric ulcers); format: in vivo; conditions: for ulcer value (major axis × minor axis): p.o., 14 days
Method: (c) Experiments with rats on ulcers induced by acetic acid
Chronic gastric ulcers were induced by penetrating 100% acetic acid serosally into gastric wall for 60 sec. using a small cup (6 mm in diameter, 5 mm in height).
From the next day, compounds to be tested were administered orally twice a day (morning and evening) for 14 days. Autopsies were carried out 15 days after the administrations.

[2] = tested on: PCA reaction (type I allergy); experiment: PCA test (type I allergy); format: in vivo, male Wister rats
Method: (a) PCA--Test (type I allergy)
Male Wister rats weighing […] were shaved at the abdomen. After 24 hours, 0.05 ml of serum diluted with saline (Blood samples were diluted to 1/32 and 1/64; The blood samples were collected from rats 3 weeks after administration of pertussis vaccine and egg albumin.) was injected intradermally at the abdomen. After 48 hours, compounds to be tested were administered intraperitoneally. Two hours thereafter, 0.5 ml./100 g of a solution of antigen and pigment (a solution of 0.4% egg albumin and 0.5% Pontamine sky blue) was administered. After 45 minutes, the rats were decapitated and bled, and the diameter of the pigment-leaking site under the skin was measured to obtain the area.

[3] = tested on: Arthus phenomenon (type III allergy); experiment: Arthus phenomenon test (type III allergy); format: in vivo, female guinea pig
Method: (b) Arthus phenomenon test (type III allergy)
To the back part of female guinea pig weighing 250-300 g, 10 mg/kg of egg albumin was administered subcutaneously. After 21 days, 2 mg/kg of egg albumin was administered intravenously, whereby death of the guinea pig due to anaphylactic shock was recognized to confirm establishment of sensitization. Thirty minutes after compounds to be tested were administered intraperitoneally, 0, 10, 100, 1000 μg/0.1 ml of egg albumin were each administered to the abdominal part which had been shaved.

`CC1(C)[C@@H](O)CC[C@]2(C)[C@H]3CC=C4[C@@H]5C[C@@](C)(CO)CC[C@]5(C)CC[C@@]4(C)[C@]3(C)CC[C@@H]12` [I, olean-12-ene-3β, 30-diol] was tested, and the “inhibitory effect on stress-induced ulcer (in words)” value (stress-induced ulcer; 200 mg/kg) was “showed a stronger inhibitory effect than glycyrrhetinic acid (II)”, the ulcer index (stress-induced ulcer; 1st experiment, control 5.63 ± 0.55) was 2.94 ± 0.81 and the ulcer index (stress-induced ulcer; 2nd experiment, control 4.13 ± 0.8) was 2.19 ± 0.6. The ulcer index (stress-induced ulcer; 3rd experiment, control 6.00 ± 0.87) was 3.88 ± 0.79, the ulcer index (stress-induced ulcer; 4th experiment, control 4.20 ± 0.70) was 1.89 ± 0.53 and the “antiulcer effect compared with glycyrrhetinic acid (in words)” value (stress-induced ulcer; all antiulcer experiments (stress, aspirin, acetic acid)) was “shows superior effects to glycyrrhetinic acid in all the experiments”. For the same compound, the “ulcer index (ulcer length×width)” value (aspirin-induced ulcer; 200 mg/kg p.o., after 5 hours, control 0) was 0 mm^2, the “effect on ulcer, experiment (b) (in words)” value (aspirin-induced ulcer; rat, in vivo) was “did not produce ulcer and inhibited the development of ulcer induced by aspirin” and the “ulcer value (major axis × minor axis)” value ([1]; Experiment 1, 200 mg/kg (half dose twice/day), control 12.0 ± 2.3) was 10.1 ± 3.4. The “ulcer value (major axis × minor axis)” value ([1]; Experiment 1, 400 mg/kg (half dose twice/day), control 12.0 ± 2.3) was 7.5 ± 0.7, the “ulcer value (major axis × minor axis)” value ([1]; Experiment 2, 200 mg/kg (half dose twice/day), control 8.9 ± 1.7) was 6.7 ± 2.2 and the “ulcer value (major axis × minor axis)” value ([1]; Experiment 2, 400 mg/kg (half dose twice/day), control 8.9 ± 1.7) was 5.2 ± 1.2. For the same compound, the “ulcer value (major axis × minor axis)” value ([1]; Total, 200 mg/kg (half dose twice/day), control 10.4 ± 1.4) was 8.4 ± 2.0, the “ulcer value (major axis × minor axis)” value ([1]; Total, 400 mg/kg (half dose twice/day), control 10.4 ± 1.4, * p < 0.05) was 6.2 ± 0.8 and the “inhibitory effect on acetic acid ulcer (in words)” value ([1]; dose of 200 mg) was “showed an inhibitory effect to some extent”. The healing rate ([1]; dose of 400 mg) was “more than 40%”, the “inhibitory effect on acetic acid ulcer (in words)” value ([1]; dose of 400 mg) was “clearly showed inhibitory effects” and the area ([2]; serum 1/32, 100 mg/kg intraperitoneally, control 35.2 ± 5.3) was 22.3 ± 9.1 mm^2. The area ([2]; serum 1/64, 100 mg/kg intraperitoneally, control 16.4 ± 2.8) was 6.8 ± 4.6 mm^2, the area ([2]; serum 1/64, 200 mg/kg intraperitoneally, control 16.4 ± 2.8) was 6.3 ± 4.8 mm^2 and the “PCA activity compared with (II) (in words)” value ([2]; serum diluted to 1/64) was “a little stronger than that of (II)”. The area ([3]; egg albumin 10 μg/0.1 ml, 100 mg/kg intraperitoneally, control 0) was 0 mm^2, the area ([3]; egg albumin 10 μg/0.1 ml, 200 mg/kg intraperitoneally, control 0) was 0 mm^2 and the area ([3]; egg albumin 100 μg/0.1 ml, 100 mg/kg intraperitoneally, control 110 ± 67) was 98 ± 98 mm^2. The area ([3]; egg albumin 100 μg/0.1 ml, 200 mg/kg intraperitoneally, control 110 ± 67) was 30 ± 30 mm^2, the area ([3]; egg albumin 1000 μg/0.1 ml, 100 mg/kg intraperitoneally, control 409 ± 130) was 334 ± 174 mm^2 and the area ([3]; egg albumin 1000 μg/0.1 ml, 200 mg/kg intraperitoneally, control 409 ± 130) was 76 ± 62 mm^2.

From US4374284A, “Antiulcer, antiinflammatory, and antiallergic agent comprising as the main ingredient olean-12-ene-3β, 30-diol which is devoid of side effects of glycyrrhetinic acid and a new process for preparation of olean-12-ene-3β, 30-diol” (Minophagen Pharmaceutical Company, priority 1980, dated 1983)
